According to US20090269795A1, “Mutant alpha4betadelta GABAA receptor and methods of treating anxiety or irritability” (priority 2007, published 2009):

Tested on: thalamic relay neurons
Assay: Tonic current in thalamic relay neurons, slice
Format: cell-based, mouse
Settings: pre-pubertal; n=6
Procedure: Hippocampal slice: Slice preparation^20: Animals were rapidly decapitated, and the brains removed and cooled using an ice cold solution of artificial cerebrospinal fluid (aCSF) containing (in mM): NaCl 124, KCl 5, CaCl2 2, KH2PO4 1.25, MgSO4 2, NaHCO3 26, and glucose 10, saturated with 95% O2, 5% CO2 and buffered to a pH of 7.4. Following sectioning at 400 μm on a Leica oscillating microtome, slices were incubated for one hour in oxygenated aCSF. Slice recording: Pyramidal cells in CA1 hippocampal slice^20 or thalamic relay neurons in the ventral tier were visualized using a Leica DIC-infrared upright microscope, and recorded at −50 or −60 mV using whole cell patch clamp procedures at room temperature (20-22° C., Axopatch 200B amplifier, Axon Instruments, 20 kHz sampling frequency, 2 kHz 4-pole Bessel filter) and pClamp 9.2 software. Patch pipets were fabricated to yield open tip resistances of 2-4 MΩ. Internal solution in mM for ECl=−70 (or ECl=−30): K-gluconate 141.5 (O), KCl 0 (52.3), CsCl 8.5 (145), HEPES 5, EGTA 5, CaCl2-H2O 0.5, QX-314 5 (Calbiochem), Mg-ATP 2, Li-GTP 0.5, pH 7.2, 290 mOsm. […] Electrode capacitance and series resistance were monitored and compensated; access resistance was monitored throughout the experiment, and cells discarded if the access resistance >10 MΩ. […]

For CC(=O)[C@H]1CC[C@H]2[C@@H]3CC[C@H]4C[C@H](O)CC[C@]4(C)[C@H]3CC[C@]12C [THP, 3α-OH-5α[β]-pregnan-20-one], the “reduction of tonic current” value was 57±12%.
